According to BigSolDB 2.1:

Which results are given for `CN(C)CCC=C1c2ccccc2CCc2ccccc21.Cl`?
solubility (mole fraction) (in 2-butanone, 283.23 K): 0.00254; solubility (mole fraction) (in 2-butanone, 288.16 K): 0.00275; solubility (mole fraction) (in 2-butanone, 293.2 K): 0.00304; solubility (mole fraction) (in 2-butanone, 298.15 K): 0.00338; solubility (mole fraction) (in 2-butanone, 303.16 K): 0.00375; solubility (mole fraction) (in 2-butanone, 308.2 K): 0.00415; solubility (mole fraction) (in 2-butanone, 313.15 K): 0.00462; solubility (mole fraction) (in 2-butanone, 318.67 K): 0.00518; solubility (mole fraction) (in 2-butanone, 323.35 K): 0.00584; solubility (mole fraction) (in DMF, 283.86 K): 0.03; solubility (mole fraction) (in DMF, 288.15 K): 0.032; solubility (mole fraction) (in DMF, 293.05 K): 0.0353; solubility (mole fraction) (in DMF, 298.04 K): 0.0387; solubility (mole fraction) (in DMF, 303.05 K): 0.0425; solubility (mole fraction) (in DMF, 308.17 K): 0.047; solubility (mole fraction) (in DMF, 313.3 K): 0.0519; solubility (mole fraction) (in DMF, 318.16 K): 0.0571; solubility (mole fraction) (in DMF, 323 K): 0.0633; solubility (mole fraction) (in THF, 283.09 K): 0.000628; solubility (mole fraction) (in THF, 288.07 K): 0.000755; solubility (mole fraction) (in THF, 293.82 K): 0.000884; solubility (mole fraction) (in THF, 298.23 K): 0.00101; solubility (mole fraction) (in THF, 303.1 K): 0.00116; solubility (mole fraction) (in THF, 309.04 K): 0.00135; solubility (mole fraction) (in THF, 313.13 K): 0.00152; solubility (mole fraction) (in THF, 317.96 K): 0.00174; solubility (mole fraction) (in THF, 323.16 K): 0.00196; solubility (mole fraction) (in acetone, 283.17 K): 0.00226; solubility (mole fraction) (in acetone, 288.13 K): 0.00252; solubility (mole fraction) (in acetone, 293.2 K): 0.00282; solubility (mole fraction) (in acetone, 298.07 K): 0.00316; solubility (mole fraction) (in acetone, 303.21 K): 0.00354; solubility (mole fraction) (in acetone, 308.19 K): 0.00398; solubility (mole fraction) (in acetone, 313.2 K): 0.00448; solubility (mole fraction) (in acetone, 318.2 K): 0.00503; solubility (mole fraction) (in acetone, 323.1 K): 0.00565; solubility (mole fraction) (in acetonitrile, 283.19 K): 0.00773; solubility (mole fraction) (in acetonitrile, 288.13 K): 0.0089; solubility (mole fraction) (in acetonitrile, 293.2 K): 0.0102; solubility (mole fraction) (in acetonitrile, 298.19 K): 0.0118; solubility (mole fraction) (in acetonitrile, 303.16 K): 0.0136; solubility (mole fraction) (in acetonitrile, 308.13 K): 0.0157; solubility (mole fraction) (in acetonitrile, 313.17 K): 0.0183; solubility (mole fraction) (in acetonitrile, 318.13 K): 0.0212; solubility (mole fraction) (in acetonitrile, 323.17 K): 0.0249; solubility (mole fraction) (in cyclohexanone, 282.93 K): 0.00512; solubility (mole fraction) (in cyclohexanone, 288.07 K): 0.00585; solubility (mole fraction) (in cyclohexanone, 293.11 K): 0.0066; solubility (mole fraction) (in cyclohexanone, 298.43 K): 0.00743; solubility (mole fraction) (in cyclohexanone, 303.09 K): 0.00829; solubility (mole fraction) (in cyclohexanone, 308.26 K): 0.00952; solubility (mole fraction) (in cyclohexanone, 313.27 K): 0.011; solubility (mole fraction) (in cyclohexanone, 319.7 K): 0.0128; solubility (mole fraction) (in cyclohexanone, 323.1 K): 0.0144; solubility (mole fraction) (in isobutanol, 283.25 K): 0.0281; solubility (mole fraction) (in isopentanol, 283.17 K): 0.0122; solubility (mole fraction) (in isopentanol, 288.19 K): 0.0159; solubility (mole fraction) (in isopentanol, 293.17 K): 0.0202; solubility (mole fraction) (in isopentanol, 298.2 K): 0.0256; solubility (mole fraction) (in isopentanol, 303.23 K): 0.0326; solubility (mole fraction) (in isopentanol, 308.17 K): 0.0416; solubility (mole fraction) (in isopentanol, 313.15 K): 0.0532; solubility (mole fraction) (in isopentanol, 318.2 K): 0.0671; solubility (mole fraction) (in isopentanol, 323.17 K): 0.0827; solubility (mole fraction) (in isopropanol, 283.16 K): 0.00585; solubility (mole fraction) (in isopropanol, 288.35 K): 0.00786; solubility (mole fraction) (in isopropanol, 293.16 K): 0.0102; solubility (mole fraction) (in isopropanol, 298.16 K): 0.0133; solubility (mole fraction) (in isopropanol, 303.05 K): 0.0177; solubility (mole fraction) (in isopropanol, 308.06 K): 0.0239; solubility (mole fraction) (in isopropanol, 313.54 K): 0.034; solubility (mole fraction) (in isopropanol, 318.16 K): 0.0456; solubility (mole fraction) (in isopropanol, 323.3 K): 0.0592; solubility (mole fraction) (in n-butanol, 283.1 K): 0.0203; solubility (mole fraction) (in n-butanol, 288.2 K): 0.0261; solubility (mole fraction) (in n-butanol, 293.13 K): 0.0333; solubility (mole fraction) (in n-butanol, 298.15 K): 0.042; solubility (mole fraction) (in n-butanol, 303.4 K): 0.0537; solubility (mole fraction) (in n-butanol, 308.2 K): 0.0662; solubility (mole fraction) (in n-butanol, 313.15 K): 0.0803; solubility (mole fraction) (in n-butanol, 318.16 K): 0.0953; solubility (mole fraction) (in n-butanol, 323.23 K): 0.112; solubility (mole fraction) (in n-pentanol, 288.23 K): 0.0366; solubility (mole fraction) (in n-pentanol, 293.21 K): 0.0456; solubility (mole fraction) (in n-pentanol, 298.07 K): 0.0562; solubility (mole fraction) (in n-pentanol, 303.07 K): 0.0701; solubility (mole fraction) (in n-pentanol, 308.2 K): 0.0855; solubility (mole fraction) (in n-pentanol, 313.16 K): 0.1; solubility (mole fraction) (in n-pentanol, 318.07 K): 0.117; solubility (mole fraction) (in n-pentanol, 323.07 K): 0.133; solubility (mole fraction) (in n-propanol, 283.17 K): 0.0266; solubility (mole fraction) (in n-propanol, 288.17 K): 0.0349; solubility (mole fraction) (in n-propanol, 293.16 K): 0.0442; solubility (mole fraction) (in n-propanol, 298.1 K): 0.0557; solubility (mole fraction) (in n-propanol, 303.07 K): 0.0691; solubility (mole fraction) (in n-propanol, 308.24 K): 0.0851; solubility (mole fraction) (in n-propanol, 313.16 K): 0.1; solubility (mole fraction) (in n-propanol, 318.07 K): 0.116; solubility (mole fraction) (in n-propanol, 323.2 K): 0.13; solubility (mole fraction) (in sec-butanol, 283.2 K): 0.00725; solubility (mole fraction) (in sec-butanol, 288.2 K): 0.00934; solubility (mole fraction) (in sec-butanol, 293.21 K): 0.0121; solubility (mole fraction) (in sec-butanol, 298.1 K): 0.0156; solubility (mole fraction) (in sec-butanol, 303.17 K): 0.0207; solubility (mole fraction) (in sec-butanol, 308.13 K): 0.0278; solubility (mole fraction) (in sec-butanol, 313.2 K): 0.0367; solubility (mole fraction) (in sec-butanol, 318.17 K): 0.0483; solubility (mole fraction) (in sec-butanol, 323.2 K): 0.0637
